Holding throughout (set-up): scale not given: the % may be the effect or the level left
The target in series [1] is ATP-dependent translocase ABCB1 (P-glycoprotein) (Homo sapiens, UniProt P08183). The series is described as follows: TP_TRANSPORTER: inhibition of Rhodamine 123 efflux (R123: 5 ug/mL, TLCA: 200 uM) in P1(0.5) cells. It is filed as functional, cell-based. To be noted: probe Rhodamine 123, read-out: Activity.
For series [2], the target named is Multidrug resistance protein 1a (Rattus norvegicus) (UniProt Q6PSM0). The series is described as follows: TP_TRANSPORTER: inhibition of Daunomycin uptake (Daunorubicin: 10 uM, TLCA: 200 uM) in canalicular membrane vesicles from SD rat. To be noted: Sprague-Dawley, Canalicular membrane vesicle. It is filed as functional, cell membranes.
Series [3] concerns the target ATP-dependent translocase ABCB1 (Homo sapiens, UniProt P08183). Kind of series: TP_TRANSPORTER: inhibition of Rhodamine 123 efflux (R123: 5 ug/mL, TCDC: 200 uM) in P1(0.5) cells. It is filed as functional, cell-based.
Series [4] deals with Multidrug resistance protein 1a (Rattus norvegicus) (UniProt Q6PSM0). The series is described as follows: TP_TRANSPORTER: inhibition of Daunomycin uptake (Daunorubicin: 10 uM, TCDC: 200 uM) in canalicular membrane vesicles from SD rat. To be noted: Sprague-Dawley, Canalicular membrane vesicle. The class given is functional, cell membranes.
Series [5] shares this target. The series is described as follows: TP_TRANSPORTER: inhibition of Daunomycin uptake (Daunorubicin: 10 uM, UDCA: 200 uM) in canalicular membrane vesicles from SD rat. The class given is functional, cell membranes. To be noted: Sprague-Dawley, Canalicular membrane vesicle.

Molecules are shown by their SMILES.

Multidrug resistance protein 1a (Rattus norvegicus), sequence (Q6PSM0 as listed by the source): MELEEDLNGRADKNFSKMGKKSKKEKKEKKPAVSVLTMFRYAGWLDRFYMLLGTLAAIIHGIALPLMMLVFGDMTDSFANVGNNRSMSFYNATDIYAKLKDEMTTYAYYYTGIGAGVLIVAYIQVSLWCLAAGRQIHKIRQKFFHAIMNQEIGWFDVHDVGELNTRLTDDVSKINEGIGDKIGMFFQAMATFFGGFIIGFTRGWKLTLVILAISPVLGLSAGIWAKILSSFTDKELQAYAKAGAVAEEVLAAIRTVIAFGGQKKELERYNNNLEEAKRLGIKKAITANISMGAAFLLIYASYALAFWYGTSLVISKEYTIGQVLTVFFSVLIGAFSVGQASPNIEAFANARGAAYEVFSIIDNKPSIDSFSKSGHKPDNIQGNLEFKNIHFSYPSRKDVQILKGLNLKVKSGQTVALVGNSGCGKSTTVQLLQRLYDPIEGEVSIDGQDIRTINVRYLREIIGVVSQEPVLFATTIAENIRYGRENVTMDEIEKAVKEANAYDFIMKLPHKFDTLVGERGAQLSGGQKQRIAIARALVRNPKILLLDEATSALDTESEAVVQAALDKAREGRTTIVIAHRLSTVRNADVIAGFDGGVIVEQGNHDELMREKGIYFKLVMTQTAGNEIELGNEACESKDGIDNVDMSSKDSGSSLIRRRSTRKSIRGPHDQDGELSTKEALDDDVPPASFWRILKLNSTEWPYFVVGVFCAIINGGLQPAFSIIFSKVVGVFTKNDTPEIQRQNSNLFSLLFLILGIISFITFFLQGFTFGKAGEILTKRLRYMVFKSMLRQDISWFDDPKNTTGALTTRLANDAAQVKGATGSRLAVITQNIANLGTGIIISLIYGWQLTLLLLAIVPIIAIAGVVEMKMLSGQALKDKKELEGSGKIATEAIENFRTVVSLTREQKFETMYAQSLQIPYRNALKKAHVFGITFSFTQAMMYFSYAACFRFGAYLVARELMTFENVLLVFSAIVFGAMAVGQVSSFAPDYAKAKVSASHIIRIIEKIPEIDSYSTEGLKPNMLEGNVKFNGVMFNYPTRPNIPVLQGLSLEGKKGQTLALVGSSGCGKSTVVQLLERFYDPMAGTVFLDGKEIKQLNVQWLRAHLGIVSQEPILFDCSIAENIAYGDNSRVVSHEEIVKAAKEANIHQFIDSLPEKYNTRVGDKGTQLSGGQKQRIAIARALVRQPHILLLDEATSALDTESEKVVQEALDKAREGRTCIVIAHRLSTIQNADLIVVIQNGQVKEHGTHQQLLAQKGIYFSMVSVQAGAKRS
ATP-dependent translocase ABCB1 (P-glycoprotein), sequence (P08183 whole entry): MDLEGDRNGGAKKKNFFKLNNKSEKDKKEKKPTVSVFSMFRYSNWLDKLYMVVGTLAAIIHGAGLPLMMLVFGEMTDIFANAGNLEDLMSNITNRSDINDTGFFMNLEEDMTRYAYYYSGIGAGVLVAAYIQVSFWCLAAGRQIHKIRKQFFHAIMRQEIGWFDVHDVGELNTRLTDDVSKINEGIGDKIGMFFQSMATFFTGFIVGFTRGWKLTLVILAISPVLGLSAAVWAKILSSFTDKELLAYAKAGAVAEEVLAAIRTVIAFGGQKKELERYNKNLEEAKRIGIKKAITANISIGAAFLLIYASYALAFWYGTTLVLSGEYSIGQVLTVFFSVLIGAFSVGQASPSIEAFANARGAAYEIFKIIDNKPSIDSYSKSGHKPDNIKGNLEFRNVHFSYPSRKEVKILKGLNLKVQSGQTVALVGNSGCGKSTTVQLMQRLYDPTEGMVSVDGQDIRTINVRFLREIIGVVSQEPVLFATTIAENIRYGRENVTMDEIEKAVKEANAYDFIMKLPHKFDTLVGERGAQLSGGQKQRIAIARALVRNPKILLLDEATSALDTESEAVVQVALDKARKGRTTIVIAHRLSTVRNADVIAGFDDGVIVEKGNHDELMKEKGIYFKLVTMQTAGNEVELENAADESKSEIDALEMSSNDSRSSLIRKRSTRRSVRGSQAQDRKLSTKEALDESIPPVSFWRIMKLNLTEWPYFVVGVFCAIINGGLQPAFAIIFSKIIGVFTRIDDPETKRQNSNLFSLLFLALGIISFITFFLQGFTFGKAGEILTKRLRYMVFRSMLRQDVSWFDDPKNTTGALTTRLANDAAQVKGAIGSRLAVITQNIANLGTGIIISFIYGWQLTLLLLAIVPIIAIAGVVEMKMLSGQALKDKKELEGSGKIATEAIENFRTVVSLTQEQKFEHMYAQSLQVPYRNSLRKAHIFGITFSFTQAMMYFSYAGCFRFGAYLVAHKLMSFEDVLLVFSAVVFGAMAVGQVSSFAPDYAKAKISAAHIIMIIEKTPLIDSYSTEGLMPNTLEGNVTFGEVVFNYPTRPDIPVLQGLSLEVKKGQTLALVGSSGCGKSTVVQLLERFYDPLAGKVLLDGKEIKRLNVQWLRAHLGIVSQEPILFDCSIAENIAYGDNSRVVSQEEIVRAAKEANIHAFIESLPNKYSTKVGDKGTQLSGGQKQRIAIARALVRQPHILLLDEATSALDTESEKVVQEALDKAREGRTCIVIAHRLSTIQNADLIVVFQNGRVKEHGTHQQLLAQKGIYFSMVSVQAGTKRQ
ATP-dependent translocase ABCB1, sequence (P08183 whole entry): as above

In the case of `C[C@H](CCC(=O)NCCS(=O)(=O)O)[C@H]1CC[C@H]2[C@@H]3CC[C@@H]4C[C@H](O)CC[C@]4(C)[C@H]3CC[C@]12C` [TAUROLITHOCHOLIC ACID], the activity at 200 µM in series [1] was determined as 40%. Further, the Activity in series [2] was 16%.
`C[C@H](CCC(=O)NCCS(=O)(=O)O)[C@H]1CC[C@H]2[C@@H]3[C@H](O)C[C@@H]4C[C@H](O)CC[C@]4(C)[C@H]3CC[C@]12C` [TAUROCHENODEOXYCHOLATE]: the Activity in series [3] was 66%; in series [4] it was 33%.
Turning to `C[C@H](CCC(=O)O)[C@H]1CC[C@H]2[C@@H]3[C@@H](O)C[C@@H]4C[C@H](O)CC[C@]4(C)[C@H]3CC[C@]12C`, in series [5], the Activity is 39%.

(Values after ChEMBL document CHEMBL2074517, “Bile acid inhibition of P-glycoprotein-mediated transport in multidrug-resistant cells and rat liver canalicular membrane vesicles” (Hepatology, 1994).)
